Drug uptake and IC50 data for eleven compounds are collected here from ChEMBL document CHEMBL2311446, “Hybrid fluorescent conjugates of COX-2 inhibitors: search for a COX-2 isozyme imaging cancer biomarker” (Bioorg Med Chem Lett, 2013).

Tested on in the first data set: not listed separately
Put plainly: Drug uptake in human HCA-7 cells overexpressing COX2 assessed as fluorescence at 10 uM after 1 hr by confocal laser scanning microscopic analysis. It is filed as ADME, cell-based. The following applies: hca-7, 1 h.
For `CCN(CC)c1ccc2c(-c3ccccc3C(=O)O)c3ccc(=[N+](CC)CC)cc-3oc2c1` [RHODAMINE B], the Drug uptake entry is on record as “Not Active”.

Another data set addresses T1, Prostaglandin G/H synthase 1 (Ovis aries, UniProt P05979).
T1 sequence (P05979 whole entry): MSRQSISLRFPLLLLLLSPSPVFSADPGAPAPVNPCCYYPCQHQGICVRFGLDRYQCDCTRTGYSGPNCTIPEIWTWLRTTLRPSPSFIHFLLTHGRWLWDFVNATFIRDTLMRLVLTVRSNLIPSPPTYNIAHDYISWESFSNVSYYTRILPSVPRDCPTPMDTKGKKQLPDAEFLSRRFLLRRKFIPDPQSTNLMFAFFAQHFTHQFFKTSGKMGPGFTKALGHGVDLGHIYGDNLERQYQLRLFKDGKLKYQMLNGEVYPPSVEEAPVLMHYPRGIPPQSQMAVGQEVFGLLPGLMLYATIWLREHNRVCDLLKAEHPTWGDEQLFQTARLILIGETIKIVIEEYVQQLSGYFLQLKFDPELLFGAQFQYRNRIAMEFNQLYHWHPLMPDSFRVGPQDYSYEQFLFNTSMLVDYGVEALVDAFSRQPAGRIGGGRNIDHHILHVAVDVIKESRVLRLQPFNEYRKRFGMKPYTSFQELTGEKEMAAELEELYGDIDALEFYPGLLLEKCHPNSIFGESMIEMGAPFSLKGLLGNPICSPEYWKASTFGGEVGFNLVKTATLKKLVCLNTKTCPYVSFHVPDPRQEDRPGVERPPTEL
Put plainly: Inhibition of ovine COX1.
Details: not given; call rule not given here
On to `CCN(CC)c1ccc2c(c1)Oc1cc(N(CC)CC)ccc1C21c2ccccc2C(=O)N1CCNS(=O)(=O)c1ccc(-n2nc(C(F)(F)F)cc2-c2ccc(C)cc2)cc1`, for which the IC50 was > 100 µM.
Same read-out and setting: the result for `CC(C)Cc1ccc(C(C)C(=O)OCCn2c3ccccc3c(=O)c3ccccc32)cc1` (stereo unspecified) reads 74.1 µM.
On to `CN(C)c1cccc2c(S(=O)(=O)NCCNS(=O)(=O)c3ccc(C4=C(c5ccc(Cl)cc5)C(=O)OC4)cc3)cccc12`, for which the IC50 is > 100 µM.
On the same count and under the same terms, the result for `CC(C)Cc1ccc(C(C)C(=O)n2c3ccccc3c(=O)c3ccccc32)cc1` (stereo unspecified) reads 51.5 µM; that for `COc1ccc2cc([C@H](C)C(=O)OCCn3c4ccccc4c(=O)c4ccccc43)ccc2c1`, 30.3 µM; that for `COc1ccc2cc([C@H](C)C(=O)n3c4ccccc4c(=O)c4ccccc43)ccc2c1`, 18 µM.
Turning to `O=c1c2ccccc2n(CCOS(=O)(=O)c2ccc(C(F)(F)F)cc2)c2ccccc12`, half-maximal inhibition (IC50) required 88.1 µM.
The same measure, in the same setting: the result for `CC(=O)Oc1ccccc1C(=O)OCCn1c2ccccc2c(=O)c2ccccc21` reads 39.4 µM; that for `Cc1ccc(-c2cc(C(F)(F)F)nn2-c2ccc(S(=O)(=O)NCCNS(=O)(=O)c3cccc4c(N(C)C)cccc34)cc2)cc1`, > 100 µM; that for `CC(C)Cc1ccc(C(C)C(=O)OCCNS(=O)(=O)c2cccc3c(N(C)C)cccc23)cc1` (stereo unspecified), > 100 µM.
